Experiments:
[1] = target: T1, ovine COX-1 (Ovis aries, UniProt P05979); experiment: COX-1 inhibition assay (colorimetric COX (ovine) inhibitor screening kit)
T1 sequence (P05979 25-600): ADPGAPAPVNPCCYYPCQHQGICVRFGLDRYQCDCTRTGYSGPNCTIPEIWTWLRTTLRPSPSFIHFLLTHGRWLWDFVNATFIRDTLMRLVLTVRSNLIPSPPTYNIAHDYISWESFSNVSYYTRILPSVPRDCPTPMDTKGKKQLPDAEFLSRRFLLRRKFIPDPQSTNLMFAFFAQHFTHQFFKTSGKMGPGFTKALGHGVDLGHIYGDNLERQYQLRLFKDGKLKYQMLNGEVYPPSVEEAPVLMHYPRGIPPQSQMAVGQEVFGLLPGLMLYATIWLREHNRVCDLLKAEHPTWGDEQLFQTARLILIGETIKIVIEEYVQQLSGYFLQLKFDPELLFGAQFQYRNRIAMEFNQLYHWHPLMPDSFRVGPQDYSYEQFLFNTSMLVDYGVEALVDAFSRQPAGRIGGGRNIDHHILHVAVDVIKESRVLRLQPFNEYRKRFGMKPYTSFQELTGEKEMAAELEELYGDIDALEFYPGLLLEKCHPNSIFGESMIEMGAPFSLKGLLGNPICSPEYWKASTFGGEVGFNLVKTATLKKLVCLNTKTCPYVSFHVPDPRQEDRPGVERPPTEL
Protocol: COX-1 and 2 inhibition assay kits (K548-100 and K547-100) were purchased from Biovision Inc., California, USA. […] The absorbances were measured using a Tecan microplate reader (Infinite F50, Switzerland). […] Sigma Chemical Company (CA, USA) supplied the reagents utilized in biological experiments.
To prepare a stock concentration of 5 mg/mL, the extract and its constituent fractions were dissolved in 100% DMSO. In triplicate, samples were serially diluted from 0.1 µg/mL to 100 µg/mL. The inhibitory activity of COX was determined using a colorimetric approach, as previously described [13], and using the Cayman colorimetric COX (ovine) inhibitor screening test kit (Cayman Chemical Company, MI, USA) according to the manufacturer’s instructions. […] After initiating the reaction with 10 µL of 10 mM arachidonic acid, the mixture was incubated at 37 °C for another 2 min. To stop the reaction, 50 µL of 1 N HCl and saturated stannous chloride were added. The assays were run using 100 U of ovine COX-1 and COX-2. […] Results were presented as IC50 (µg/mL) [13].

[2] = target: 5-LOX enzyme; experiment: 5-Lipoxygenase (5-LOX) inhibitory assay (colorimetric LOX inhibitor screening kit); format: biochemical; settings: isolated compounds
Protocol: The LOX inhibitor screening assay was carried out colorimetrically, as per the manufacturer’s instructions (Cayman Chemical Company, MI, USA). […] To initiate the enzymatic reaction, introduce 10 µL of 1 mM arachidonic acid and shake the plate for 5 min.
To halt the enzymatic process and promote colour formation, 100 µL of chromogen from the test kit was used. The plate was then shaken for a further 5 min before the absorbance at 490 nm was measured with a microplate reader.

[3] = test system: carrageenan-induced rat paw edema; design: method as in PMID 12241987; settings: cited from earlier work
[4] = test system: lipoxygenase; design: method as in PMID 26134247; settings: dose of 0.5 mM; cited from earlier work
[5] = test system: soybean 5-LOX; design: method as in doi:10.1007/s00044-016-1677-9; settings: in vitro; cited from earlier work

Structure (SMILES) | IC50 [1] | IC50 [2] | anti-inflammatory effect in carrageenan-induced rat paw edema [3] | inhibition of lipoxygenase [4] | suppression of soybean 5-LOX [5]
COC(=O)C1=COC(OC2OC(CO)C(O)C(O)C2O)C2C1(O)CC(OC(=O)C=Cc1ccc(OC)c(O)c1)C2(C)O (stereo not shown) [Compound 1, duranterectoside A] | 7.3 ± 0.9 µM | 2.6 ± 0.1 µM | – | – | –
COC(=O)C1=COC(OC2OC(CO)C(O)C(O)C2O)C2C1(O)CC(O)C2(C)O (stereo not shown) [Compound 2, lamiide] | 8.5 ± 0.2 µM | 4.9 ± 0.4 µM | anti-inflammatory properties | moderate inhibition | suppresses
